Measured values published in PMC4205289, “Triptolide inhibits human immunodeficiency virus type 1 replication by promoting proteasomal degradation of Tat protein” (Retrovirology, 2014).

Assays:
[1] = tested on: HIV-1 mRNA; test: Reverse-transcription PCR of viral mRNA (Gag region) in infected Jurkat cells; type: cell-based; conditions: HIV-1 NL4-3 MOI 0.5, 12 h post-infection, 118-D-24 50 μM, flavopiridol 20 nM, triptolide 5 nM
Protocol: (§1) The effects of the test compounds on HIV-1 proviral DNA and mRNA synthesis were analyzed by PCR. Jurkat cells were grown in 24-well plates and infected with the HIV-1 NL4-3 strain at an MOI of 0.5, and then test compounds were added at the desired concentrations. After incubation for 12 h, genomic DNA and mRNA from the infected cells were isolated using a Genomic DNA Mini Preparation Kit (Beyotime, China) and TRIzol reagent (Invitrogen Life Technologies), respectively. Nested PCR was used for the amplification of integrated proviral DNA, as previously described. To determine viral mRNA expression levels, 1 μg of RNA was treated with RQ1 RNase-Free DNase (Promega) and reverse transcribed using M-MLV Reverse Transcriptase (Promega) and random primers (Promega). An aliquot of cDNA was used as template for amplification of the HIV-1 Gag region as described elsewhere. […]
(§2) All of the PCR products were visualized on a UV transilluminator in 2% agarose gels stained with ethidium bromide. In preliminary experiments, the exponential range of the PCR amplification curve was determined for all of the PCR products by varying the amount of input DNA and the number of PCR cycles. Based on these experiments, appropriate conditions were chosen to perform semi-quantitative PCRs.

[2] = tested on: HIV-1 proviral DNA; test: Nested PCR of integrated proviral DNA in infected Jurkat cells; type: cell-based; conditions: HIV-1 NL4-3 MOI 0.5, 12 h post-infection, 118-D-24 50 μM, flavopiridol 20 nM, triptolide 5 nM
Protocol: as §1, §2

[3] = tested on: HIV-1 molecular clone pNL4-3.Luc.R-E-; test: Transient gene expression assay, pNL4-3.Luc.R-E- transfected into Jurkat cells; type: cell-based; conditions: 24 h, 118-D-24 50 μM, flavopiridol 20 nM, triptolide 0.2 ~ 5 nM
Protocol: Figure 3 Triptolide inhibits HIV-1 transcription. (A) Time-of-addition analysis. TZM-bl cells were infected with HIV-1 (MOI = 0.5, strain NL4-3), and the virus inoculum was removed after 1 h of absorption. Test compounds (dextran sulfate at 10 μg/mL, zidovudine at 1 μM and triptolide at 5 nM) were added at the indicated time points after infection. Reporter signal was monitored at 48 h post-infection as a measure of viral replication. (B) The effect of triptolide on HIV-1 proviral DNA formation. Jurkat cells were infected with HIV-1 (MOI = 0.5, strain NL4-3) in the presence of the test compounds (INI 118-D-24, 50 μM; flavopiridol, 20 nM; and triptolide, 5 nM). Proviral DNA synthesis was determined by nested PCR analysis at 12 h post-infection. (C) The effect of triptolide on HIV-1 mRNA synthesis. Jurkat cells were infected with HIV-1(MOI = 0.5, strain NL4-3) in the presence of the test compounds (INI 118-D-24, 50 μM; flavopiridol, 20 nM; triptolide, 5 nM). Viral mRNA (the Gag region) content was determined by reverse-transcription PCR analysis 12 h post-infection. (D) Inhibition of luciferase expression encoded in pNL4-3.Luc.R-E- by tiptolide. […]
To further confirm that triptolide interferes with HIV-1 transcription, a transient gene expression assay was performed. […] At 24 h after transfection, viral gene transcription (indicated by luciferase activity) was determined. […]

[4] = tested on: HIV-1 NL4-3; test: Time-of-addition experiment in TZM-bl cells; type: cell-based
Protocol: TZM-bl cells seeded in 96-well plates (2 × 10^4 /well) were infected with HIV-1 NL4-3 (MOI = 1). The virus inoculum was removed after 1 h of infection. Test compounds were added at different time points after infection (0 h, 2 h, 4 h, 6 h, 8 h, and 10 h). Dextran sulfate was added at 10 μg/mL, zidovudine at 1 μM and triptolide at 5 nM. At 48 h post-infection, the virus replication level was determined by analyzing luciferase activity in the cells as described above.

[5] = tested on: T1, FLAG-Tat; test: Proteasome inhibition rescue of Tat expression, Western blot, HeLa cells; type: cell-based, HIV-1 NL4-3
T1 construct: expressed in transfected cells; host or cells: HeLa
Protocol: Figure 6 Triptolide reduces Tat protein stability by enhancing proteasomal degradation of Tat. (A) The effect of triptolide on Tat mRNA levels. HeLa cells were transfected with pEF1-Tat in the presence of increasing concentrations of triptolide. Cells were harvested 48 h post-transfection. The steady-state mRNA levels of Tat and GAPDH were examined using semi-quantitative reverse transcription PCR analysis. RT, reverse transcriptase. (B) The effect of triptolide on Tat protein degradation. HeLa cells were transfected with pEF1-FLAG-Tat in the presence of 5 nM triptolide or vehicle (DMSO). At 28 h post-transfection, cells were treated with 20 μg/mL of CHX to arrest protein synthesis. At 0, 1, 2, 3 h post-treatment, cells were harvested to determine protein expression levels using Western blot analysis. (C) The band intensities of FLAG-Tat in panel B were measured, and their natural log values were plotted as a function of time. Results were presented as the mean plus the standard deviations (n = 3). (D) Proteasome inhibition restores Tat protein expression. HeLa cells were transfected with pEF1-FLAG-Tat in the presence or absence of 5 nM triptolide. At 48 h post-transfection, cells were treated with 20 μM of MG132, and cultured for an additional 3 h before harvest. Protein expression levels were determined by Western blot analysis. TEXT PRINTED IN THE PICTURE: (C) DMSO: Half-lives: 2.0 h | (C) Triptolide: Half-lives: 0.4 h
Cells were washed with phosphate buffered saline (PBS) and lysed with radio immunoprecipitation assay lysis buffer supplemented with complete mini protease inhibitor cocktail (Roche) at 4°C for 1 h. Proteins from cell lysates were separated by SDS-PAGE and transferred to polyvinylidene difluoride membranes. After overnight incubation with primary antibodies at 4°C, each blot was probed with horseradish peroxidase-conjugated secondary antibody. Immunoreactive signals were detected with an enhanced chemiluminescence substrate (Thermo Scientific) using an AlphaEaseH FC Imaging System (Alpha Innotech Corporation).

CN1CC[C@H](c2c(O)cc(O)c3c(=O)cc(-c4ccccc4Cl)oc23)[C@H](O)C1 [flavopiridol, reference compound]
effect on viral mRNA synthesis [1]: repress viral mRNA synthesis
effect on proviral DNA formation (integration) [2]: no effect on virus integration
effect on luciferase expression from transfected pNL4-3.Luc.R-E- [3]: significantly reduced luciferase expression

Cc1cn([C@H]2C[C@H](N=[N+]=[N-])[C@@H](CO)O2)c(=O)[nH]c1=O [zidovudine]
inhibition at 1 µM ([4]; Human immunodeficiency virus 1, NL43, TZM-bl, read-out: inhibitory activity retained): 71%

Dextran sulfate sodium salt
time-of-addition inhibition profile ([4]; dextran sulfate at 10 μg/mL, luciferase at 48 h): dramatic early loss in activity

MG132
increase of Tat level ([5]; 20 μM MG132 for 3 h, without triptolide, relative to DMSO control): 30%
restoration of Tat protein, increase as % of Tat level in DMSO control ([5]; 20 μM MG132 for 3 h in the presence of 5 nM triptolide): 30%
